# Columns and labels:
# [1] = tested on: Patients aged 1 to 18 years with physician-diagnosed AD; assay: Randomized double-blind placebo-controlled crossover clinical trial: AD severity by SCORAD index; type: in vivo, human; set-up: key to mean SCORAD index, first treatment period, before / mean SCORAD index, first treatment period, after: SCORAD index, range 1-103, higher = worse symptoms; key to Objective SCORAD index, Difference: objective SCORAD, range 0-83, higher = worse symptoms
# Experimental: A randomized clinical study with a double-blind, placebo-controlled crossover design was performed. The institutional review committee of National Taiwan University Hospital approved the study protocol. This study conformed to the principles of the Declaration of Helsinki. Patients or their guardians provided written informed consent. Patients aged 1 to 18 years with physician-diagnosed AD involving at least 5% of the total body surface area were recruited from the pediatric and dermatology outpatient departments of the National Taiwan University Hospital from Aug. 1, 2012, through Jan. 31, 2013. Follow-up was completed on Apr. 13, 2013. Those patients with sleep problems occurring more than 3 days per week during the previous 3 months were eligible. The study participants were randomly assigned to 2 groups in a 1:1 ratio, with a block size of 4. One group received melatonin first and then placebo, and the other group received placebo first and then melatonin. The melatonin and placebo tablets were identical in appearance. The participants and their caregivers, treating physicians, those assessing outcomes, and those analyzing the data were all masked to group assignment. […] They were then randomized to receive oral melatonin, 3 mg/d (General Nutrition Corporation), or placebo (Standard Chem & Pharm Co, Ltd) at bedtime for 4 weeks. After a 2-week washout period, participants crossed to the alternate treatment. In this clinical trial, the primary study outcome was the Scoring Atopic Dermatitis (SCORAD) index for the evaluation of AD severity. Secondary outcomes included the objective sleep variables measured by actigraphy, the patient's subjective description of the change in sleep and dermatitis severity, the sleep variables measured by polysomnography, nocturnal urinary levels of 6-sulfatoxymelatonin, and serumtotal and allergen-specific IgE levels. Severity of AD was assessed using the SCORAD index (range, 1-103, with greater scores indicating worse symptoms) by the same physician (Y.-S.C.) blinded to the treatment randomization. The SCORAD index includes subjective visual analog scale scores from 0 to 10 (with greater numbers indicating worse symptoms) for degree of pruritus and sleep loss, which are referred to as the pruritus score and the subjective sleep score, respectively, in this study. The objective SCORAD index, which excludes the SCORAD score for subjective symptoms (range, 0-83, with greater scores indicating worse symptoms), was also used for analysis.
# serum total IgE = assay: Example 6: serum IgE in DNCB-induced AD mouse model; type: in vivo, Balb/c mice
# Experimental: Blood and dorsal skin of each mouse were collected on the last day of the experiment (Day 20) and stored at −80° C. until use. Serum IgE levels were measured using the ImmunoCAP fluorescence enzyme immunoassay (Phadia AB, Sweden) according to the manufacturer's instructions. The dorsal skin mRNA expression of the cytokines IL-4, IL-13, and IL-17 were measured by RT-PCR.
# The protocol for establishing an AD mouse model in this Example was modified from those described previously. Briefly, referring to FIG. 12, DNCB-induced AD mouse model was prepared by the repeated applications of 20 μL of 1% DNCB in acetone/olive oil (4:1) to the outer and inner surfaces of mouse ears and 100 μL of the same solution to the shaved back skin once on days 1 and 4. Mice of Control group were treated with the identical volumes of vehicle.
# The DNCB-sensitized mice were randomly assigned to one of four groups: DNCB, DNCB+0.1% topical melatonin, DNCB+1% topical melatonin, DNCB+8% topical melatonin. Each group (including Control group) consisted of 3 mice. On days 8 and 11, sensitized mice was challenged by applying 0.2% DNCB to the skin surfaces. For the three groups treated with topical melatonin groups, 0.1 mg of topical melatonin cream was given twice a day from day 1 to day 14. […]
# The serum IgE levels were measured on the last day of the experiment (Day 15) in the same manner as those described in Example 5.
# [2] = tested on: Patients aged 1 to 18 years with physician-diagnosed AD; assay: Clinical trial: polysomnography in a subgroup; type: in vivo, human; settings: melatonin vs placebo, P>0.05
# Experimental: Sleep was evaluated by actigraphy (Mini-Mitter Actiwatch; Philips-Respironics). Each participant wore the actigraphic device on the nondominant wrist for 3 consecutive nights starting 3 nights before each treatment period and for the last 3 nights of each treatment period. In a subgroup of patients who offered consent, polysomnography was performed on the night before the first day and on the last night of each treatment period.
# [3] = Clinical trial: nocturnal urinary 6-sulfatoxymelatonin by ELISA; type: in vivo, human; settings: after treatment with melatonin compared with placebo, P<0.001
# Experimental: The first urine sample on the morning after each actigraphic examination was obtained. Levels of urinary 6-sulfatoxymelatonin were assayed by enzyme-linked immunosorbent assay with a commercialized kit (IBL International GmbH) and were used to represent the melatonin level throughout the previous night.
# [4] = after vs before oral melatonin 3 mg/d, 4 weeks, mean
# [5] = melatonin vs placebo, adjusted for age and sex
smiles,measurement,setting,value
"COc1ccc2[nH]cc(CCNC(C)=O)c2c1 [Melatonin, melatonin]","SCORAD index vs placebo, Wilcoxon signed rank test","[1]; FIGS. 2A and 2C, sensitivity analysis",apparently decreased the SCORAD index
same,patients who subjectively believed that their dermatitis had improved,"[1]; after melatonin treatment, 17 of 36 (placebo 12 of 38 [32%])",47%
same,"Subjective sleep score, After","[1]; after oral melatonin 3 mg/d at bedtime for 4 weeks, mean",3.8
same,"Pruritus score, After","[1]; after oral melatonin 3 mg/d at bedtime for 4 weeks, mean, score 0 to 10",5.1
same,"Objective SCORAD index, After","[1]; after oral melatonin 3 mg/d at bedtime for 4 weeks, mean, score 0 to 83",31.3
same,"SCORAD index, After","[1]; after oral melatonin 3 mg/d at bedtime for 4 weeks, mean, score 0 to 103",40.2
same,"Objective SCORAD index, Difference",[1]; [4],−8.2
same,"Pruritus score, Difference",[1]; [4],−0.6
same,"SCORAD index, Difference",[1]; [4],−9.9
same,"Subjective sleep score, Difference",[1]; [4],−1.1
same,mean reduction of the SCORAD index,"[1]; in 4 weeks, oral melatonin 3 mg/d",9.9
same,decrease of the SCORAD index compared with placebo,"[1]; linear mixed-effects model, adjusted for age and sex",9.1
same,decrease of the objective SCORAD index compared with placebo,"[1]; linear mixed-effects model, no significant carryover effect (P=0.81), significant period effect (P=0.02)",8.7
same,"mean SCORAD index, first treatment period, after","[1]; melatonin group, first treatment period, after oral 3 mg/d for 4 weeks",42.3
same,"mean SCORAD index, first treatment period, before","[1]; melatonin group, first treatment period, before treatment",49.5
same,"mean SCORAD index, second treatment period, after","[1]; melatonin group, second treatment period, after oral 3 mg/d for 4 weeks",38.3
same,"mean SCORAD index, second treatment period, before","[1]; melatonin group, second treatment period, before treatment",48.7
same,"Subjective sleep score, Before","[1]; melatonin phase, before treatment, mean",4.8
same,"Pruritus score, Before","[1]; melatonin phase, before treatment, mean, score 0 to 10",5.6
same,"Objective SCORAD index, Before","[1]; melatonin phase, before treatment, mean, score 0 to 83",38.6
same,"SCORAD index, Before","[1]; melatonin phase, before treatment, mean, score 0 to 103",49.1
same,"Objective SCORAD index, Difference of Treatment Effect From the Linear Mixed-Effects Model, Mean",[1]; [5],−8.7
same,"Pruritus score, Difference of Treatment Effect From the Linear Mixed-Effects Model, Mean",[1]; [5],0.0
same,"SCORAD index, Difference of Treatment Effect From the Linear Mixed-Effects Model, Mean",[1]; [5],−9.1
same,"Subjective sleep score, Difference of Treatment Effect From the Linear Mixed-Effects Model, Mean",[1]; [5],−0.4
same,serum total IgE levels,"serum total IgE; 8% topical melatonin treatment, FIG. 15",lowered the total serum IgE most
same,serum total IgE levels,"serum total IgE; after topical melatonin treatment (0.1%, 1%, 8%), dose-response relationship, FIG. 15, Day 15",reduced
same,effect on the stages of sleep and limb movement,[2],did not have a significantly different effect
same,Nocturnal urinary 6-sulfatoxymelatonin levels,[3],significantly increased

# Source: patent US20180296530A1, “METHOD FOR TREATING ATOPIC DERMATITIS” (priority 2015, published 2018)
